Reference: patent publication US20240398767A1, “INHIBITORS OF THE MTDH-SND1 PROTEIN COMPLEX FOR CANCER THERAPY” (The Trustees of Princeton University, priority 2021, published 2024)

What was measured:
[1] = test system: SCP28 cells; experiment: Experimental lung metastasis of SCP28 cells; assay type: in vivo; details: 5 weeks treatment
Protocol: FIG. 17D, Tail-vein injection lung metastasis was determined by BLI right before (Week 0) or after (5 weeks) vehicle or C26-A6 treatment. Vehicle, n=11 lungs; C26-A6, n=12 lungs.
FIG. 17E, Lung metastatic nodules were quantified. The metastatic nodules of the representative lungs were highlighted with red and blue respectively. Size bar, 5 mm. Vehicle, n=11 lungs; C26-A6, n=12 lungs.
To exclude the possibility that the lung metastasis reduction upon C26-A6 treatment was due to the smaller primary tumor, tail vein injection of PyMT tumor cells was performed to form experimental lung metastasis in FVB mice. Three days later, mice were divided randomly into two groups and treated with vehicle or C26-A6 respectively (FIG. 5L).

[2] = test system: E0771-OVA control (shCtrl) cells; experiment: E0771-OVA shCtrl cells / OT-I splenocyte co-culture; assay type: cell-based, mouse; details: 24 hr co-culture
Source text: For FIGS. 33B-33D, E0771-OVA cells with (shTap1/2) or without (shCtrl) Tap1/2 knockdown were co-cultured with OT-I splenocytes with the ratio of 1:10 (tumor cells:splenocytes). Data represent mean±SEM. n=3 independent experiments. Significance determined by one-way ANOVA analysis with Sidak's test for multiple comparisons.
FIG. 33B, 24 hr after co-culture, tumor cells were collected for examining OVA (H-2K^b-SIINFEKL) expression.
FIG. 33C, 24 hr after co-culture, tumor cells were collected for examining MHC-I expression.
FIG. 33D, 24 hr after co-culture, splenocytes were collected for examining CD137 expression.
MTDH-SND1 suppresses antigen presentation by reducing Tap1/2. To confirm that MTDH-SND1 drives immune evasion through suppressing the Tap1/2 pathway, antigen presentation-deficient cells were generated by knocking down Tap1/2^20. E0771-OVA cells were transduced with lentiviruses expressing Tap1/2-targeting shRNAs. Tap1/2 KD was confirmed by western blot (FIG. 33A), and antigen presentation deficiency upon Tap1/2 KD was also validated (FIGS. 33B, 33C). Next, shCtrl (control shRNA) or Tap1/2 KD cells were co-cultured with OT-I splenocytes together with vehicle or C26-A6 treatment.

[3] = test system: PyMT tumor immune microenvironment; experiment: Immune cell profiling of orthotopic PyMT tumors and lungs by flow cytometry; assay type: in vivo, FVB females; details: six weeks after treatment
Source text: FIGS. 35A-35C show C26-A6 combined with anti-PD-1 treatment reshapes the tumor immune microenvironment. For FIGS. 35A-35C, 100 k PyMT tumor cells were orthotopically injected into the mammary glands of FVB females. The mice were randomized and divided into three groups when primary tumors were established, followed by vehicle, C26-A6, or C26-A6+anti-PD-1 treatment. Six weeks after treatment, primary tumors and lung with metastatic lesions were collected for flow analysis with indicated antibodies. Anti-PD-1, 200 μg/mouse i.p. injection, twice per week for the first week and then once per week after that; C26-A6, 15 mg/kg i.v. injection, 5 days per week. n=6 mice per group. Data represent mean±SEM. Significance determined by one-way ANOVA analysis with Dunnett's test for multiple comparisons.
FIG. 35A, Percentages of CD11b^+F4/80^+, Ly6G^lowLy6C^high, Ly6G^highLy6C^low, CD3-NK1.1^+ in CD45^+ population and percentage of CD4^+FOXP3^+ in CD3^+ population are shown.
FIG. 35B, Percentages of GITR^+LAG-3^+ in CD8^+ population are shown.
Flow cytometry. Dissociated tumors or lungs were dissected and prepared as previously described^10. […]. Organoids were sequentially suspended with 0.25% trypsin-EDTA for 1.5 min, 5 mg/ml Dispase (Invitrogen), and 0.1 mg/ml DNase (Sigma) for 5 min, and 0.64% ammonium chloride for 5 min at 37° C. before filtration through a 40 μm nylon cell strainer. Tumor or lung cell suspensions were incubated with an antibody cocktail in FACS buffer (PBS+3% BSA) for 30 minutes at 4° C., washed, and resuspended in FACS buffer for flow analysis. Isotype controls were used to assess specificity of antibody labeling. […] Samples were analyzed with BD FACSDiva v6 software and data was processed with FlowJo v10 software. […]

For `COc1ccc(Cl)cc1S(=O)(=O)Nc1cccn2nc(C)nc12` [Analog C26-A6], the experimental lung metastasis [1] was “dramatically inhibited”, the “antigen presentation and T cell activation” value [2] was “significant increase” and the “CD8+ T cell exhaustion (GITR+LAG-3+ in CD8+ population)” value [3] was “elevated CD8^+ T cell exhaustion”. The “infiltration of Ly6GhighLy6Clow sub-population of MDSCs” value [3] was “reduced”, the “infiltration of Ly6GlowLy6Chigh sub-population of MDSCs” value [3] was “significantly enhanced” and the “populations of macrophages, NK cells and regulatory T cells” value [3] was “not significantly altered”.
